Values quoted from earlier work, collected in PMC3671928 (Analytical chemistry, 2013).
pIC50: −log10 of the molar value.

Legend:
[1] = biological target: leucine aminopeptidase (LAP); conditions: read-out: IC50, leucine aminopeptidase (LAP)
[2] = biological target: puromycin-sensitive aminopeptidase (PuSA); conditions: read-out: IC50, puromycin-sensitive aminopeptidase (PuSA)
aminopeptidase N = conditions: read-out: IC50, aminopeptidase N
peptidase activity = conditions: 1 μM applied to cells for 24 h
U937 cells = conditions: prolonged exposure to 1 μM

For `CC(C)C[C@@H](C(=O)N[C@H](C(=O)OC1CCCC1)c1ccccc1)[C@H](O)C(=O)NO` [Tosedostat], the pIC50 [1] is given as 7.00, the pIC50 [2] is given as 6.82 and the pIC50 (aminopeptidase N) is given as 6.66. The “inhibition of fragmentation of a fluorogenic substrate” value (peptidase activity) was “approximately 50%” and the “effect on proliferation of U937 cells” value (U937 cells) was “substantially inhibits proliferation”.
